{
  "source": "patent US20120196766A1",
  "about": "“Therapeutic Use of Farnesyltransferase Inhibitors and Methods of Monitoring the Efficacy Thereof” (priority 2004, published 2012)",
  "key": {"[1]": {"system": "NF-κB", "settings": "cited from earlier work"}, "[2]": {"system": "human PBMC", "experiment": "LPS-induced cytokine production in human PBMC", "assay_type": "cell-based", "settings": "2 or 5 μM, LPS 10 ng/ml, 10% FBS", "protocol": "(§1) Human IL-6, IL18, IL1β, MCP-1, MMP-9, and mouse IL-6, IL18, TNFα, MCP-1 and IL-1β were measured with ELISA kits (R&D Systems) according to the manufacturer's instructions.\nHeparinized human blood (25 ml) from a healthy donor was overlaid into a 50 ml conical tubes containing 20 ml Ficoll-Paque, and centrifuged for 20 min at 2000 rpm at room temperature and then allowed to stop without using the brake on the centrifuge. The upper layer was aspirated, leaving the mononuclear cell layer undisturbed at the interface. Cells were carefully transferred the to a new […] conical tube. The conical tube was filled with PBS, mixed and centrifuged at 1500 rpm for 15 minutes at room temperature. The supernatant was carefully and completely removed. The cell pellet was resupended in 50 ml of PBS and centrifuged at 1500 rpm for 5 minutes. This wash step was repeated once more. The cells were counted and resuspended cells at 1.7×10^6/ml in low-endotoxin RPMI1640/10% FBS.\nHuman PBMC (180 μl at 1.7×10^6/ml) were pipetted into each well of a 96-well plate. […] Cells were incubated at 37° C., under 5% CO2 for 1 hour, then 10 μl LPS (diluted in medium) were added per well to reach a final concentration of 10 ng/ml. Cells were cultured at 37° C., under 5% CO2. Supernatants were collected at 16 hours, 24 hours and 40 hours of LPS treatment, and IL-6 secretion was quantified."}, "[3]": {"target": "farnesyltransferase (Homo sapiens, UniProt P49354+P49356)", "settings": "cited from earlier work"}, "[4]": {"system": "BALB/c mice", "experiment": "LPS-induced cytokine production in vivo (murine model of LPS-induced inflammation)", "settings": "Mus musculus; 50 mg/kg oral before LPS; 2 hours, first experiment; read-out: inhibition of MIP-1α production", "protocol": "The experiments were performed on female BALB/c mice (6-7 week old; Charles River Laboratories, Inc. MA). […] The control mice received the vehicle (20% cyclodextran) only. 20 μg LPS (Sigma), diluted in PBS, was injected into each mouse intraperitoneally. Blood samples were collected either by eye bleeding or cardiac puncture at 1 and 2 hours after LPS injection in one experiment, and at 2 and 3 hours after LPS injection in a second experiment. Plasma samples were collected by centrifugation, and stored at ≦−20° C. before being tested for cytokines using individual ELISA kits or Luminex analysis (see below).\nas §1\nSamples were tested for cytokines using the Bio-plex cytokine assay kit (Bio-Rad Laboratories, Inc.) according to the manufacturer's instructions. Briefly, 50 μL anti-cytokine antibody conjugated beads were added to wells of a filter plate pre-equilibrated with assay buffer. The beads were washed, then 50 μL of undiluted cell culture supernatant or 4-fold diluted plasma samples were added and incubated for 2 hours. Biotinylated anti-cytokine antibody (25 μL) was added to each well and the plate was incubated with shaking for 1.5 hours. Streptavidin-PE (50 μL) was added to each well and the plate was incubated with shaking for 45 min. between incubations, wells were washed 3 times with 100 μL wash buffer and unbound analytes were filtered using a vacuum manifold. Following the last wash step, 125 μL of assay buffer was added to each well and the plate was placed on a shaker for 10 min. The plate was read on a Luminex^100 instrument (Luminex Corporation, Austin, Tex.) according to the manufacturer's instructions. The concentration of cytokine was determined from a standard curve assayed at the same time."}},
  "data": [
    {"smiles": "NC(=O)N1CCC(CC(=O)N2CCC([C@H]3c4ncc(Br)cc4CCc4cc(Cl)cc(Br)c43)CC2)CC1", "note": "[SCH 66336, (+)-(R)-4-[2-[4-(3,10-dibromo-8-chloro-5,6-dihydro-11H-benzo[5,6]cyclohepta[1,2-b]pyridin-11-yl)piperidin-1-yl]-2-oxoethyl]piperidine-1-carboxamide]", "values": [
      {"measurement": "TNF-α induced NF-κB activity", "setting": "[1]", "value": "inhibited"}
    ]},
    {"smiles": "Cn1cncc1C(N)(c1ccc(Cl)cc1)c1ccc2c(c1)c(-c1cccc(Cl)c1)cc(=O)n2C", "note": "(single isomer, unassigned) [less active enantiomer]", "values": [
      {"measurement": "LPS-induced IL-6 production", "setting": "[2]", "value": "No difference in production"},
      {"measurement": "fold less active than tipifarnib (R115777) for inhibition of farnesyltransferase", "setting": "[3]", "value": "about 100 fold"}
    ]},
    {"smiles": "CCC(C)(C)C(=O)O[C@H]1C[C@@H](C)C=C2C=C[C@H](C)[C@H](CC[C@@H]3C[C@@H](O)CC(=O)O3)[C@H]21", "note": "[simvastatin]", "values": [
      {"measurement": "inhibition at 50 mg/kg", "setting": "[4]", "value": "~50", "unit": "%"}
    ]}
  ]
}
